Experimental data reported in paper PMC5618191 (Toxins, 2017).

How the values were obtained:
KB-3-1 cells = assay: Annexin-V/PI staining (cell death analysis); assay type: cell-based, human; details: KB-3-1, 24 h
Description: 1. Supplementary Materials and Methods […]
1.2 Annexin-V/PI Staining
KB-3-1 cells were seeded (2x10^5cells/well) and treated on the following day for 24 h with the […]
Cells were trypsinized, centrifuged (300g, 5 min) and resuspended in 100 µL buffer A (10 mM HEPES, 140 mM NaCl and 2.5 mM CaCl2) and stained for 15 min in the dark with PI (1 µg/mL) and Annexin-V-APC (20 µL/mL, BD Biosciences). Two-hundred µL of buffer A were then added and 10,000 cells were measured by FACS analysis (FACSCalibur; Becton Dickinson). Percentages of viable, early and late apoptotic cells and of necrotic cells were determined by CellQuest Pro software (Becton, Dickinson and Company, NY, USA). […]
The following primary […]
antibodies specific for the following targets were diluted 1:1000 in TBST/3% BSA (w/v): PARP, Bak, Bax, Bim, Bcl-xL (polyclonal, Cell Signaling Technology, Beverly, MA, USA), caspase 9, cl. caspase 9 (monoclonal, Cell Signaling Technology) and β-actin (monoclonal, Clone AC-15, Sigma-Aldrich).
Secondary horseradish peroxidase-labeled antibodies (goat anti-rabbit or anti-mouse, Santa Cruz Biotechnology, Dallas, Texas, TX, USA) were diluted 1:10,000 in TBST/1% BSA. […]
(b) Mean percentages (± SD) of early (white bars) and late apoptotic (gray bars) and of necrotic cells (black bars) were determined by Annexin-V/PI staining after cells were treated for 24 h with the […]

[1] = system: KB-3-1-derived tumor xenografts; assay: KB-3-1 xenograft mouse model; assay type: in vivo, CB-17/SCID mice
Description: For the allograft experiment, 4 × 10^5 CT-26 cells were resuspended in 50 µL RPMI medium and injected subcutaneously into the right flank of eight, 6–8 weeks old, male BALB/c mice that were obtained from Harlan Laboratories (San Pietro al Natisone, Italy). Likewise, in the xenograft experiment, 1 × 10^6 KB-3-1 cells in 50 µL RPMI medium were injected subcutaneously into the right flank of eight, 6–8 weeks old, male CB-17/IcrHanHsd-Prkdc severe combined immunodeficiency (SCID) mice. Of each group, four animals were randomly assigned to the control or to the treatment group. […] All animals were kept under pathogen-free conditions and all procedures were performed in a laminar flow hood. Effects of the treatment were assessed by daily recording of tumor size with a microcaliper and parameters indicating the animals’ overall health condition (e.g., body weight, fatigue, grooming, ragged coat, food and fluid consumption). Tumor volumes (mm^3) were calculated using the formula: (length × width^2)/2. […] The tumor mass was weighed and organs and tissues for immunohistochemical experiments were fixed in 4% formalin/PBS (Roti®-Histofix 4%, Roth, Karlsruhe, Germany) or shock-frozen in liquid nitrogen and stored at −80 °C until the samples were prepared for LC-MS/MS analysis. The experiments were approved by the ethics committee of the Austrian Federal Ministry of Science, Research, and Economy (BMWF-66.009/0084-II/3b/2013, date of approval: 5 September 2013) and performed in line with the Arrive guidelines for animal care and protection and with guidelines from the Austrian Animal Science Association and from the Federation of European Laboratory Animal Science Associations (FELASA).
From each mouse from both the control (n = 4) and the treatment group (n = 4), tissue samples were formalin-fixed, paraffin-embedded and used to prepare serial 3 µm sections. Then, slices were deparaffinized and rehydrated. To evaluate the percentages of interphase/resting, mitotic and dead (apoptotic/necrotic) cell fractions in tumor specimens, sections were stained with hematoxylin and eosin (H/E) by means of standard protocols. Numbers of the three cell fractions were analyzed in a blinded setup in at least four images of H/E-stained tumor sections, taken under a 40 × objective microscope lens. In addition, for the quantification of areas of dead tumor tissue in whole tumor sections, the H/E-stained slides were scanned with a Pannoramic MIDI automated slide scanner (3[…], Budapest, Hungary) and evaluated using Definiens’ TissueStudio® 4.0 (Definiens®, Munich, Germany) software and Pannoramic Viewer (3[…]) software. To evaluate the fraction of apoptotic cells in tumor sections a terminal deoxynucleotidyl transferase (TdT) deoxyuridine triphosphate (dUTP) nick end labeling (TUNEL) assay was performed applying the In Situ Cell Death Kit TMR (red) (Roche Diagnostics, Mannheim, Germany) according to the manufacturer’s protocol. Afterwards, slides were covered with Vectashield anti-fade mounting medium with DAPI (H-1200, Vector Laboratories, Burlingame, CA, USA). Slides were protected from light until they were scanned with a Pannoramic MIDI automated slide scanner (3[…]) and analyzed via digital image analysis software (Definiens’ TissueStudio® 4.0, Definiens®). In order to visualize the proliferative cell fraction (cells in the interphase or M-phase) of tumors, KB-3-1 tumor sections were stained with the Ki-67 (clone MiB-1) antibody from DAKO (1:100; Glostrup, Denmark) and for CT-26 tumor sections with Ki-67 (1:100; D3B5, rabbit, Cell Signaling, Danvers, USA). The primary antibody was incubated for 30 min at room temperature in a humid chamber and after rinsing the slides for 3 min in PBS + 0.1% Tween, the UltraVision LP detection system was applied according to the manufacturer’s instructions (Thermo Fisher Scientific, Massachusetts, MA, USA). Sections were counterstained with hematoxylin. […]

## beauvericin
KB-3-1 cells
  Concentration at which induction of apoptotic cell death was clearly detectable: > 2 µM
[1]; 5 mg/kg bw/day, day 16, vs control, p = 0.152
  Mean tumor weight lowered: 31.2%
[1]; 5 mg/kg bw/day, two cycles, day 16
  Reduction in tumor volume: 31.3%
[1]; treated vs control
  Percentages of apoptotic/necrotic cells within viable areas (H/E): almost no difference
[1]; treated vs control, p = 0.143
  Increase of TUNEL-positive cells: 1.5 fold
[1]; treated vs control, significant
  Increase of proportion of necrotic areas in H/E-stained whole tumor sections: 34.2%
[1]; treatment group, tumor sections, control 99.5 ± 0.6%
  Ki-67-positive cells: 98.8 ± 0.6%
[1]; treatment group, control 1.5 ± 0.4%
  Mitotic cells in H/E-stained tumor sections: 1.3 ± 0.3%
